Consider 7 compounds from patent US20240391931A1 (Bristol-Myers Squibb Company, priority 2021, published 2024).

In one test the target is T1, HER2 WT (Homo sapiens, UniProt P04626).
T1 construct: purchased ProQinase, Freiburg, Germany ERBB2 0108-0000-1
In words: Enzymatic assay HER2 WT (method a). The test is classed as biochemical. The settings on record: [HER2 WT]=12.5 nM, [ATP]=25 μM, [Peptide 22]=1 μM. The method, boiled down: (§1)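 Microfluidic mobility-shift kinase assay with Peptide 22 (1 μM) in HEPES pH 7.5, MnCl2, MgCl2, Tween 20, TCEP. HER2 WT 12.5 nM and HER2 YVMA 5 nM each used 25 μM ATP; EGFR WT 2 nM used 1 mM ATP. IC50 came from initial-velocity (0–3600 s) percent inhibition, fitted to a variable-slope model.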

For a further test, the target named is T2, EGFR WT (Homo sapiens, UniProt P00533).
T2 construct: purchased Thermo Fisher, Carlsbad, CA ERBB1 PR7295B
In words: Enzymatic assay EGFR WT (method c). The test is classed as biochemical. As to conditions: [EGFR WT]=2 nM, [ATP]=1 mM, [Peptide 22]=1 μM. An outline of the steps:
as §1

The target in test [1] is T3, HER2 wildtype (WT) protein (Homo sapiens, UniProt P04626).
T3 construct: BT474 and N87 cell lines which endogenously overexpress the HER2 wildtype (WT) protein; endogenous in cells; host or cells: BT474, N87
In words: HER2 signaling (pHER2 Tyr1248/total HER2 MSD) in BT474 cells. The test is classed as cell-based. As to conditions: 1.5 hr compound, 1% FBS. An outline of the steps: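 BT474, N87 (HER2 WT) and NCI-H1781 (HER2 G776delinsVC) cells were treated for 1.5 h at 37° C in 1% FBS medium with compound at 0.0005–1.1 μM. pHER2 Tyr1248 was measured by MSD on whole-cell lysates and normalized to total HER2 as % DMSO. EC50 came from a variable-slope sigmoidal fit.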

For the next test, the target named is HER2YVMA (Homo sapiens, UniProt P04626, INS775YVMA). In words: Enzymatic assay HER2YVMA (method b). As to conditions: [HER2YVMA]=5 nM, [ATP]=25 μM, [Peptide 22]=1 μM. Details: purchased Viva biotech, Shanghai, China custom purification. The test is classed as biochemical. The method, boiled down: as §1
Sequence of HER2YVMA (P04626 with tags, fused parts or gaps INS775YVMA): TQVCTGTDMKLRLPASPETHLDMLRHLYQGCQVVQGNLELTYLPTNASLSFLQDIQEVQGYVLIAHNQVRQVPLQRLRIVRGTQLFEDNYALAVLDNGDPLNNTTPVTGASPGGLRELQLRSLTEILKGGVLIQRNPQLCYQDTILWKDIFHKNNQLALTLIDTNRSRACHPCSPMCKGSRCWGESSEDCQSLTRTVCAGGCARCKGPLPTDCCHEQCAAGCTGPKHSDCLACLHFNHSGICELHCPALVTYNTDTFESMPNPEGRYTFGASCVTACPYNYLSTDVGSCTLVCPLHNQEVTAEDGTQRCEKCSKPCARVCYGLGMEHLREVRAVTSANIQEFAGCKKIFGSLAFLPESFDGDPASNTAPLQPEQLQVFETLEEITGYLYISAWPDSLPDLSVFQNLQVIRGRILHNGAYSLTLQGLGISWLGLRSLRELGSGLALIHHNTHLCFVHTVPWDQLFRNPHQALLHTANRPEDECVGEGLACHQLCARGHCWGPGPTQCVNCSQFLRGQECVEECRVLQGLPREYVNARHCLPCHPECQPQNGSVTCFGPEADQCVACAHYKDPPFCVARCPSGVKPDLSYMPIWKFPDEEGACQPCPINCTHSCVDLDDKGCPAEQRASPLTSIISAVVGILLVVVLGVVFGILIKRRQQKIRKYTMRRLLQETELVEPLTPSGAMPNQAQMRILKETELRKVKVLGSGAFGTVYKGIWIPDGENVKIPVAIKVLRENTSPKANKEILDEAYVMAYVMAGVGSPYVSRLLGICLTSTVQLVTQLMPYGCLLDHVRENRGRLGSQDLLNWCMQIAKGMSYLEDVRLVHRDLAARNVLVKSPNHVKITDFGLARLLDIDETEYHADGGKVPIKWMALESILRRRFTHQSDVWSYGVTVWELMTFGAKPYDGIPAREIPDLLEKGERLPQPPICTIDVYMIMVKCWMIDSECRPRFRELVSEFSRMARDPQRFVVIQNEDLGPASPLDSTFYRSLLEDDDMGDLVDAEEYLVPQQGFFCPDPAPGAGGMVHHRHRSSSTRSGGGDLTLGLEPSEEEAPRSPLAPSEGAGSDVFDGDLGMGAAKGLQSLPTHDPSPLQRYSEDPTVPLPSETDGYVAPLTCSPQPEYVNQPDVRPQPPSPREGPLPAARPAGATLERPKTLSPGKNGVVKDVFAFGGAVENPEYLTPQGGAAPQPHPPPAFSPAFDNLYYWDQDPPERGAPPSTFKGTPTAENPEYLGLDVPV

T1 sequence (P04626 23-1255): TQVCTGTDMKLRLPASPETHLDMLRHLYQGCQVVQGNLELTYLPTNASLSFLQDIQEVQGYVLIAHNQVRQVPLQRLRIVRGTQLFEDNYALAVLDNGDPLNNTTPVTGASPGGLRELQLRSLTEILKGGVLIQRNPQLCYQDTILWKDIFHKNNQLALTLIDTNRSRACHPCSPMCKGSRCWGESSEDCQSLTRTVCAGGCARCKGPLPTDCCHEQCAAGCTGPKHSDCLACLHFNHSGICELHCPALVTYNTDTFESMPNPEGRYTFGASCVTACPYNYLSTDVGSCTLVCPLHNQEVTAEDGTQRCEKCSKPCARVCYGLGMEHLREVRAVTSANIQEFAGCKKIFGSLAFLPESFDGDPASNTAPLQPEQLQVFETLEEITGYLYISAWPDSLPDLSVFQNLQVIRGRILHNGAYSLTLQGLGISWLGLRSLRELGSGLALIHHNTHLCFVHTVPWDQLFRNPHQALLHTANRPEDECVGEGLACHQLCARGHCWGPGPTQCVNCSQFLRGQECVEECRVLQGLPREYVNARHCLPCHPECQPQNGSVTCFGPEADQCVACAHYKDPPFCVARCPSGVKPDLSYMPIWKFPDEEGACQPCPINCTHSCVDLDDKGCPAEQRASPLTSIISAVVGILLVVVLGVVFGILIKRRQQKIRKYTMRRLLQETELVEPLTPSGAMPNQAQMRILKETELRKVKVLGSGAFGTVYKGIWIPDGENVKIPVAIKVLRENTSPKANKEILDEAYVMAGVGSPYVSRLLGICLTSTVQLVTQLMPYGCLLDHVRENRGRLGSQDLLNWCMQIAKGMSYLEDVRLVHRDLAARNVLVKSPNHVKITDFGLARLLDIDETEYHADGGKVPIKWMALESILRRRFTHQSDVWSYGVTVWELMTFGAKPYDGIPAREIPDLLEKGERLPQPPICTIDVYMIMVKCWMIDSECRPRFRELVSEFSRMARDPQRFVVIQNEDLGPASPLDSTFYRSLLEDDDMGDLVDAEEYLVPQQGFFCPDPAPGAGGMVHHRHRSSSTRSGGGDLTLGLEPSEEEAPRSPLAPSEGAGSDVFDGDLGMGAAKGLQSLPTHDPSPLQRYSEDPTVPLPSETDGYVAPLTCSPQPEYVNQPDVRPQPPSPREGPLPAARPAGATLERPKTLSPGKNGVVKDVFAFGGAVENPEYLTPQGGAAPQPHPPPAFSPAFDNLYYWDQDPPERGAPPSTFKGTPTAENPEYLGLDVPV
T3 sequence (P04626 23-1255): as above
T2 sequence (P00533 25-1210): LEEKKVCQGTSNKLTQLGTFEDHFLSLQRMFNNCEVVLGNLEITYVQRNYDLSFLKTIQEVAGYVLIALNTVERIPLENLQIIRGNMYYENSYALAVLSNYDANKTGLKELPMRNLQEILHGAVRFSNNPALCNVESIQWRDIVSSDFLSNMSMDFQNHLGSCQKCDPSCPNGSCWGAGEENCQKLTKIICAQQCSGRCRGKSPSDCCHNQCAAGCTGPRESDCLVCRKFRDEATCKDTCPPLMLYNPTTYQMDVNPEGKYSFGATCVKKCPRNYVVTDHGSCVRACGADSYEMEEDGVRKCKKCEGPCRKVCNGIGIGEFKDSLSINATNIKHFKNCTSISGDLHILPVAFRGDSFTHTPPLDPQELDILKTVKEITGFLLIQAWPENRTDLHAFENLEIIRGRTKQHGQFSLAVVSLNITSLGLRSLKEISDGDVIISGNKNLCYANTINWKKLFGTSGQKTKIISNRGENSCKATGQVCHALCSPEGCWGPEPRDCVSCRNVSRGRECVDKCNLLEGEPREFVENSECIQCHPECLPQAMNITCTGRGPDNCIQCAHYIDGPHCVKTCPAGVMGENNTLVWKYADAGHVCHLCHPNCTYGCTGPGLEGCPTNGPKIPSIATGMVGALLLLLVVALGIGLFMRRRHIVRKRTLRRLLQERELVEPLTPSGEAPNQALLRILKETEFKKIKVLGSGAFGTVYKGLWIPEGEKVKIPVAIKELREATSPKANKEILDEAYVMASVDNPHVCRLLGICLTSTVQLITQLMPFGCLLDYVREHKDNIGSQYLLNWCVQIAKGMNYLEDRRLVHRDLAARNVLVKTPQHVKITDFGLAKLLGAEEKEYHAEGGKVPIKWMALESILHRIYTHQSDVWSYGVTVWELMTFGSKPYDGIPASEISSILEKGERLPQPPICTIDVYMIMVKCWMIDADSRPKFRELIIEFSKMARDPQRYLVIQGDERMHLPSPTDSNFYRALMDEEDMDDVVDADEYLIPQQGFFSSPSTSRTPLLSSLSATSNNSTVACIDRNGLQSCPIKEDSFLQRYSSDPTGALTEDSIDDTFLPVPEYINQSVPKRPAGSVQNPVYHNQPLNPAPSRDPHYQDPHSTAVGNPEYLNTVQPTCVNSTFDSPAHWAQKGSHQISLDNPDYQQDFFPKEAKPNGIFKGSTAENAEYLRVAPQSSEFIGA

As to `Cc1cc(Nc2ncnc3sc4c(c23)CCN(C(=O)/C=C/CN(C)C)CC4)ccc1Oc1ccn2ccnc2c1` [Compound 172, (E)-4-(Dimethylamino)-1-(4-((4-(imidazo[1,2-a]pyridin-7-yloxy)-3-methylphenyl)amino)-8,9-dihydro-5H-pyrimido[5′,4′:4,5]thieno[2,3-d]azepin-7(6H)-yl)but-2-en-1-one], the IC50 (as a rule, the concentration that inhibits the measured activity by half) on HER2 WT is under 100 nM; against EGFR WT, over 10000 nM; at HER2YVMA, under 100 nM. Further, the EC50 (usually the concentration that produces a half-maximal response) in test [1] is under 100 nM.

With `Cc1ccc(Oc2ccc(Nc3ncnc4sc5c(c34)C(C)CN(C(=O)/C=C/CN3CCOCC3)C5)cc2C)cn1` (stereo not shown) [Compound 174, (E)-1-(5-Methyl-4-((3-methyl-4-((6-methylpyridin-3-yl)oxy)phenyl)amino)-5,6-dihydropyrido[4′,3′:4,5]thieno[2,3-d]pyrimidin-7(8H)-yl)-4-morpholinobut-2-en-1-one], the 50% inhibitory concentration (IC50) is 100 to 1000 nM against HER2 WT, over 10000 nM against EGFR WT and under 100 nM at HER2YVMA. The same compound returned a concentration giving a half-maximal response (EC50) in test [1] of under 100 nM.

With `C=CC(=O)N1CCc2c(sc3ncnc(Nc4ccc(Oc5cccnc5)c(C)c4)c23)C1` [Compound 11, 1-(4-((3-methyl-4-(pyridin-3-yloxy)phenyl)amino)-5,8-dihydropyrido[4′,3′:4,5]thieno[2,3-d]pyrimidin-7(6H)-yl)prop-2-en-1-one], the IC50 was under 100 nM on HER2 WT, 1000 to 10000 nM at EGFR WT and under 100 nM against HER2YVMA. In addition, the EC50 in test [1] was under 100 nM.

For the compound `Cc1cc(Nc2ncnc3sc4c(c23)CCN(C(=O)/C=C/CN(C)C)C4)ccc1Oc1ccn2ccnc2c1` [Compound 126, (E)-4-(dimethylamino)-1-(4-((4-(imidazo[1,2-a]pyridin-7-yloxy)-3-methylphenyl)amino)-5,8-dihydropyrido[4′,3′:4,5]thieno[2,3-d]pyrimidin-7(6H)-yl)but-2-en-1-one], the IC50 was under 100 nM at HER2 WT, over 10000 nM against EGFR WT and under 100 nM against HER2YVMA. The same compound had a concentration giving a half-maximal response (EC50) in test [1] of under 100 nM.

`Cc1cc(Nc2ncnc3sc4c(c23)CN(C(=O)/C=C/CN(C)C)C4)ccc1Oc1ccn2ncnc2c1` [Compound 130, (E)-1-(4-((4-([1,2,4]Triazolo[1,5-a]pyridin-7-yloxy)-3-methylphenyl)amino)-5H-pyrrolo[3′,4′:4,5]thieno[2,3-d]pyrimidin-6(7H)-yl)-4-(dimethylamino)but-2-en-1-one]: the IC50 was under 100 nM against HER2 WT, over 10000 nM on EGFR WT and under 100 nM against HER2YVMA. The EC50 in test [1] is under 100 nM.

In the case of `Cc1cc(Nc2ncnc3sc4c(c23)CCN(C(=O)/C=C/CN2CCOCC2)C4)ccc1Oc1ccc2ncnn2c1` [Compound 12], the values for the IC50 at HER2 WT, against EGFR WT and at HER2YVMA were under 100 nM, over 10000 nM and 100 to 1000 nM, respectively. Further, the EC50 in test [1] was under 100 nM.

`Cc1ccc(Oc2ccc(Nc3ncnc4sc5c(c34)CCN(C(=O)/C=C/CN3CC(C)(C)OC(C)(C)C3)C5)cc2C)cn1` [Compound 121]: the IC50 was 1000 to 10000 nM on HER2 WT, over 10000 nM at EGFR WT and 100 to 1000 nM against HER2YVMA. The EC50 in test [1] is under 100 nM.
